Patent US10722491B2, “Phenol compound and combination of same with a benzodiazepine fused to 1,4-dihydropyridine for treating diseases of the central nervous and vascular systems” (UNIVERSIDAD DE LA HABANA, priority 2016, dated 2020)

What was measured:
PC12 cells = test: Cytoprotection against L-glutamate damage in PC12 cells (MTT); assay type: cell-based; settings: 50 mM L-glutamate
Method: FIG. 6. Cytoprotective effect of KM-34 10001-10 HM) against damage induced by L-glutamate (50 mmol/L) in cultures of PC12 cells. Viability (% live cells) was determined by the MTT assay. Cells were seeded at a density of 5×10^5 cells/mL in a 96-well plate. KM-34 was added simultaneously to the addition of L-glutamate. The culture was then allowed to incubate at 37° C, […] and 5% CO 2 for 4 hours. After this time the supernatant was removed and the cells were incubated with 20 μg of MTT for an additional 2 hours and the absorbance at 450 nm was measured with reference to 630 nm. The results are expressed as percentage of live cells relative to the control (cells without damage, 100% of live cells. * Represents significant differences (p<0.05) with respect to the L-glutamate control.
FIG. 14. The survival rate for […] administered 50 mM Glutamate is shown. The control group was not administered 50 mM Glutamate. The remaining four groups were administered 50 mM Glutamate. The “Glu 50 mM” group was not administered any compounds of the invention. The “JM 0.01 μM” group was administered 0.01 μM JM-20. The “KM 0.01 μM” group was administered 0.01 μM KM-34. The “JM 0.01 μM+KM 0.01 μM” group was administered 0.01 μM JM-20 and 0.01 μM KM-34.
At values above 1 μM KM-34, the cytoprotection response is greater than 80%.

[1] = O2.- radical scavenging in the pyrogallol autoxidation test; assay type: biochemical
Method: FIG. 2. Activity of KM-34 (5-100 μM) as radical scavenger O2.− expressed as the percentage inhibition of autoxidation of pyrogallol. The same was obtained by varying the absorbance at 420 nm for 1 minute with respect to a blank uninhibited reaction: without KM-34; the slope was calculated for each concentration of the sample and for the target with a R2>0.98. The reaction takes place in […] Tris-HCl pH 8.2 buffer and was initiated by the addition of 0.134 mM Pirogalol*P<0.05 to the carrier (uninhibited reaction).
A non-enzymatic system generating these radicals was used to evaluate the O2.^− sequestration activity of KM-34, which catalyzes the autoxidation of pyrogallol, forming a colored compound that absorbs at 420 nm (Marklund, 1985).

[2] = test system: animals damaged with 6-OHDA; test: 6-OHDA Parkinson's model, cylinder test; assay type: in vivo, rats; settings: 7 days after 6-OHDA damage
[3] = KM-34 capacity to reduce DPPH radicals; assay type: biochemical
Method: FIG. 1. Percentage reduction of DPPH (100 μM) by KM-34 (5-400 μM) was determined by changing in the absorbance at 550 nm from a target containing only DPPH and vehicle (zero concentration of KM −34 or AA), after 30 minutes of reaction. Values are expressed as the mean ± SD (n=3). *P<0.05 with respect to the vehicle.
One of the most commonly used methods to estimate antioxidant activity is to evaluate the ability of different compounds to reduce DPPH radicals, which can be determined spectrophotometrically (Brand-Williams et al., 1995). […] Electron delocalization causes the intense violet coloration of the DPPH radical form when it is prepared in ethanol solution (Molyneux et al., 2004).
The IC 50 value obtained for KM was approximately 2.4 times lower than that obtained for ascorbic acid (AA) used as the reference compound.

[4] = Spectrophotometric evidence of interactions between KM-34 and Fe2+; assay type: physicochemical; settings: 100 μM KM-34; FeCl2 50, 100 and 200 μM; pH 7.4
Method: FIG. 4. Maximum absorption data on UV-VIS (200-500 nm) of the 100 μM KM-34 in a mixture of 10 mM phosphate buffer (KH2PO4/ KOH) pH 7.4 and absolute ethanol 14:1 (v:v) and The absorbance in the presence of FeCl2 (50, 100 and 200 μM) dissolved in 10mM HCL.
In order to verify the existence of possible interactions between KM-34 and Fe2+ (through modifications in their spectra), the following results were obtained:
This could indicate possible interactions between Fe2+ and KM-34 where the ion is stabilized at Fe3+ by unsaturated ligands due to the stabilization of the larger crystalline field from an electron configuration d6 (Fe2+) to a d5 (Fe3+) (Hider et al., 1981, Hider et al., 1983). This justifies the response obtained in the oxidative degradation test of DR where it was observed that the KM-34 in these conditions seems to act more as a coordinator of Fe2+ than as a .OH scavenger.

In the case of `CC1(C)OC(=O)C(=Cc2ccc(O)c(O)c2)C(=O)O1` [KM-34, 5-[(3,4-dihydroxyphenyl)methylidene]-2,2-dimethyl-1,3-dioxane-4,6-dione], the “Concentration significantly (P<0.01) inhibiting cell damage by L-glutamate” value (PC12 cells; 4 hours) is reported as “greater than 0.01 μM”, the Cytoprotection response (PC12 cells; above 1 μM KM-34) is reported as “greater than 80%” and the “Concentration significantly (p<0.05) inhibiting formation of oxidized pyrogallol vs vehicle” value [1] is reported as “greater than 5 μM”. For the same molecule, the IC50 ([1]; Tris-HCl pH 8.2, read-out: IC50, inhibition of autoxidation of pyrogallol (O2.- scavenging)) was 11 µM, the “Inhibition of oxidation of pyrogallol” value ([1]; from 50 μM) was “totally inhibited” and the “% asymmetry, cylinder test” value ([2]; 0.5 mg/kg) was “no statistically significant difference with respect to the damaged group without treatment”. The “% asymmetry, cylinder test” value ([2]; 2 mg/kg and 1 mg/kg) was “equal to the animals (healthy) animals”, the IC50 ([3]; DPPH 100 μM, 30 minutes of reaction, read-out: IC50, reduction of DPPH radicals) was 16.3 µM and the “IC50 of KM relative to ascorbic acid (times lower)” value ([3]; DPPH, AA as reference compound) was “approximately 2.4 times”. For the same molecule, the “Concentration giving significant (p<0.05) inhibition of the DPPH radical vs vehicle” value ([3]; after 30 minutes of reaction) was “higher than 5 μM”, the DPPH reduction response ([3]; at concentrations above 50 μM) was “reached its maximum response” and the “Absorbance of KM-34 at absorption maxima 262, 345 and 472 nm in presence of Fe2+” value [4] was “is modified as the concentration of the ferrous ion increases”.
